The target of one experiment is SST5 (Homo sapiens, UniProt P35346). Description: Hit Hunter cAMP XS+ assay, SST5 activation via Gi (reduction of forskolin-stimulated cAMP). It is filed as cell-based. As to conditions: for Emax: read-out: SST5 (EMax); for EC50: reduction of forskolin-stimulated cAMP, 4-parameter logistic fit, read-out: SST5 pEC50 (converted); for SST5/2 Selectivity: selectivity for SST5 over SST2. The procedure: (§1) A Hit Hunter® cAMP XS+ assay was used to monitor activation of the SST2 and SST5 via the Gi G protein. Cells were pre-stimulated with forskolin to elicit a cAMP response and the potency and efficacy of somatostatin agonists to reduce cAMP was measured. Briefly cells (10,000 cells/well) were incubated (37° C.; 30 min) with compound ([…]) in media (2:1 HBSS/11 mM Hepes: cAMP XS+Ab reagent) in the presence of EC80 forskolin ([…] and 15 μM SST5). Signal was detected through incubation with 20 μL cAMP XS+ED/CL lysis cocktail ([…]; RT) followed by incubation with […] cAMP XS+EA reagent (180 min; RT). Microplates were read with a PerkinElmer Envision™ instrument for chemiluminescent signal detection.
Chain of SST5 (P35346 whole entry): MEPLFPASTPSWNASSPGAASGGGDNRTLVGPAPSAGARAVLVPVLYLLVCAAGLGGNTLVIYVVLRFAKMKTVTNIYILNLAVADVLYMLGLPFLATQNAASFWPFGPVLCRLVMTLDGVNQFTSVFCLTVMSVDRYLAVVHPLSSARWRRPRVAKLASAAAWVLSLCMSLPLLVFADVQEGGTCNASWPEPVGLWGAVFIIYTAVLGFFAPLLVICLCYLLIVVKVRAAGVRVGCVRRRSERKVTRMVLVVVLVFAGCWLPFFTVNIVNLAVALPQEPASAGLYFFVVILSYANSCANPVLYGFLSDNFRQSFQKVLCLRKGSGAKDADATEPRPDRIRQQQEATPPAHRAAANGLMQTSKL

The next experiment deals with SST2 (Homo sapiens, UniProt P30874). Description: Hit Hunter cAMP XS+ assay, SST2 activation via Gi (reduction of forskolin-stimulated cAMP). It is filed as cell-based. As to conditions: for Emax: read-out: SST2 (EMax); for EC50: reduction of forskolin-stimulated cAMP, 4-parameter logistic fit, read-out: SST2 pEC50 (converted). On the procedure:
as §1

The results in this text go back to patent publication US11987648B2, “Cyclohexapeptides as selective somatostatin SST5 receptor agonists” (Heptares Therapeutics Limited, priority 2018, dated 2024).

*1 amine or outer side, *2 acyl side, *3 side chain or, on linkers, in order; H or OH if unused. Where a SMILES comes first, the peptide text is derived from it. Side-chain parts run from the residue outwards. [ ]: non-standard residue; d: D form. The star is where a group is joined. Ala(piperidin-4-yl) = O=C([C@H](CC1CCN([*:3])CC1)N[*:1])[*:2]; dTrp(4-Me) = Cc1cccc2[nH]cc(C[C@@H](N)C(=O)O)c12; Ala(piperazin-1-yl) = N[C@@H](CN1CCNCC1)C(=O)O; Phe(4-Cl) = N[C@@H](Cc1ccc(Cl)cc1)C(=O)O; Morpholine(3S-CO) = O=C(O)[C@@H]1COCCN1; Ethylenediamine = C(CN[*:2])N[*:1]; d(hPhe) = N[C@H](CCc1ccccc1)C(=O)O; Hyp = O=C(O)[C@@H]1C[C@@H](O)CN1; hPhe = N[C@@H](CCc1ccccc1)C(=O)O; 3Pal = N[C@@H](Cc1cccnc1)C(=O)O; Tic = O=C(O)[C@@H]1Cc2ccccc2CN1; X3 = CN[C@H]1CCN(*)C1; CO = O=C([*:1])[*:2]; Bn = c1ccc(C*)cc1; X4 = C1CC(C*)C1 A value given as a limit tells only on which side of the number the result lay.

Chain of SST2 (P30874 whole entry): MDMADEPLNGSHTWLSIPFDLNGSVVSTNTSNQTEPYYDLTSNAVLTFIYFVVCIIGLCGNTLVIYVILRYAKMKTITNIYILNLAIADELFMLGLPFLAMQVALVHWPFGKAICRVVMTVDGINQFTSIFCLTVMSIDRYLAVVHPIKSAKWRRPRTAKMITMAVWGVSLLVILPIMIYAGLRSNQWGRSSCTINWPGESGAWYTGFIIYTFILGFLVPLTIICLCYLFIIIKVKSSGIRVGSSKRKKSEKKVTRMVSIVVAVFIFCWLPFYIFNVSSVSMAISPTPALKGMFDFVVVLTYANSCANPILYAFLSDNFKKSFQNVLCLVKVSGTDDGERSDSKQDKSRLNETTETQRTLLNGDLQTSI

In the case of `NCCNC(=O)O[C@@H]1C[C@H]2C(=O)N[C@H](CCc3ccccc3)C(=O)N[C@H](Cc3c[nH]c4ccccc34)C(=O)N[C@@H](CN3CCNCC3)C(=O)N[C@@H](Cc3ccc(OCc4ccccc4)cc3)C(=O)N[C@@H](Cc3ccc(Cl)cc3)C(=O)N2C1` [Example 30] (cyclo([Hyp]([CO-Ethylenediamine])[d(hPhe)][dW][Ala(piperazin-1-yl)]Y(Bn)[Phe(4-Cl)])), on SST5, the Emax (commonly the greatest response seen or fitted, relative to the assay's reference) was 101%; the EC50 is 1 nM; the “SST5/2 Selectivity” value is reported as 214.2. Besides, on SST2, the maximal response (Emax) is 100% and the EC50 is 251 nM.

Turning to `CN[C@H]1CCN(C(=O)O[C@@H]2C[C@H]3C(=O)N[C@@H](CCc4ccccc4)C(=O)N[C@H](Cc4c[nH]c5ccccc45)C(=O)N[C@@H](CC4CCNCC4)C(=O)N[C@@H](Cc4ccc(OCc5ccccc5)cc4)C(=O)N4Cc5ccccc5C[C@H]4C(=O)N3C2)C1` [Example 78] (cyclo([Hyp]([CO-X3])[hPhe][dW][Ala(piperidin-4-yl)]Y(Bn)[Tic])), at SST5, the maximal response (Emax) was determined as 106%, the EC50 is 1.26 nM and the “SST5/2 Selectivity” value is listed as 2726.7. For the same compound, on SST2, the maximum response (Emax) was found to be 76.2% and the EC50 was 3160 nM.

As for `NCCNC(=O)O[C@@H]1C[C@H]2C(=O)N[C@@H](CCc3ccccc3)C(=O)N[C@@H](Cc3c[nH]c4ccccc34)C(=O)N[C@@H](CC3CCNCC3)C(=O)N[C@@H](Cc3ccc(OCc4ccccc4)cc3)C(=O)N3Cc4ccccc4C[C@H]3C(=O)N2C1` [Example 19] (cyclo([Hyp]([CO-Ethylenediamine])[hPhe]W[Ala(piperidin-4-yl)]Y(Bn)[Tic])), on SST5, the maximum response (Emax) turned out to be 99.8%, the EC50 is 20 nM and the “SST5/2 Selectivity” value turned out to be 5.5. On SST2, the Emax worked out at 75.5% and the EC50 is 100 nM.

Consider `NCCNC(=O)O[C@@H]1C[C@H]2C(=O)N[C@@H](CCc3ccccc3)C(=O)N[C@H](Cc3c[nH]c4ccccc34)C(=O)N[C@@H](CC3CCNCC3)C(=O)N[C@@H](Cc3ccc(OCC4CCC4)cc3)C(=O)N[C@@H](Cc3cccnc3)C(=O)N2C1` [Example 50] (cyclo([3Pal][Hyp]([CO-Ethylenediamine])[hPhe][dW][Ala(piperidin-4-yl)]Y(X4))), for which, on SST5, the Emax was found to be 103%, the EC50 was 15.8 nM and the “SST5/2 Selectivity” value is on record as 41.1. Besides, on SST2, the Emax turned out to be 95.4% and the EC50 is 631 nM.

Take `Cc1cccc2[nH]cc(C[C@H]3NC(=O)[C@H](CCc4ccccc4)NC(=O)[C@@H]4C[C@@H](OC(=O)NCCN)CN4C(=O)[C@H](Cc4cccnc4)NC(=O)[C@H](Cc4ccc(OCc5ccccc5)cc4)NC(=O)[C@H](CC4CCNCC4)NC3=O)c12` [Example 60] (cyclo([3Pal][Hyp]([CO-Ethylenediamine])[hPhe][dTrp(4-Me)][Ala(piperidin-4-yl)]Y(Bn))): on SST5, the maximal effect (Emax) was found to be 104%, the EC50 is 1 nM and the “SST5/2 Selectivity” value amounted to 129.4. Also, on SST2, the Emax turned out to be 99.8% and the EC50 was 126 nM.

With `NCCNC(=O)O[C@@H]1C[C@H]2C(=O)N[C@H](CCc3ccccc3)C(=O)N[C@@H](Cc3c[nH]c4ccccc34)C(=O)N[C@@H](CN3CCNCC3)C(=O)N[C@@H](Cc3ccc(OCc4ccccc4)cc3)C(=O)N[C@@H](Cc3cccnc3)C(=O)N2C1` [Example 33] (cyclo([3Pal][Hyp]([CO-Ethylenediamine])[d(hPhe)]W[Ala(piperazin-1-yl)]Y(Bn))), on SST5, the Emax was determined as 107%, the EC50 was 39.8 nM and the “SST5/2 Selectivity” value is recorded as 279.1. Further, at SST2, the Emax was 13.4% and the EC50 is more than 10000 nM.

For the compound `O=C1N[C@@H](Cc2ccc(OCc3ccccc3)cc2)C(=O)N2Cc3ccccc3C[C@H]2C(=O)N2CCOC[C@H]2C(=O)N[C@H](CCc2ccccc2)C(=O)N[C@H](Cc2c[nH]c3ccccc23)C(=O)N[C@H]1CC1CCNCC1` [Example 62] (cyclo([Tic][Morpholine(3S-CO)][d(hPhe)][dW][Ala(piperidin-4-yl)]Y(Bn))), on SST5, the maximum response (Emax) stood at 102%, the EC50 was 3.16 nM and the “SST5/2 Selectivity” value came out at 224.3. In addition, at SST2, the Emax amounted to 99.4% and the EC50 was 631 nM.
